Source: BigSolDB 2.1

N#Cc1cccc([N+](=O)[O-])c1
solubility (mole fraction)
Conditions	278.15 K	283.15 K	288.15 K	293.15 K	298.15 K	303.15 K	308.15 K	313.15 K	318.15 K
in acetic acid	–	–	–	0.0354	0.04	0.0459	0.0525	0.0608	0.0713
in acetone	0.0789	0.0905	0.106	0.123	0.142	0.164	0.187	0.213	0.242
in acetonitrile	0.0473	0.0565	0.0682	0.0814	0.0973	0.116	0.138	0.164	0.196
in cyclohexane	–	0.000365	0.000472	0.000599	0.000768	0.00097	0.00121	0.00153	0.00193
in ethanol	0.00312	0.0038	0.00473	0.00582	0.00715	0.00873	0.0106	0.013	0.0159
in ethyl acetate	0.0353	0.044	0.0565	0.0706	0.0876	0.109	0.135	0.166	0.203
in isobutanol	0.00162	0.00207	0.00265	0.0033	0.00409	0.00504	0.00624	0.00773	0.00959
in isopropanol	0.0017	0.00215	0.00274	0.0035	0.00446	0.00565	0.00711	0.00905	0.0114
in methanol	0.0041	0.00501	0.00622	0.0076	0.00926	0.0112	0.0134	0.0162	0.0195
in n-butanol	0.00233	0.00286	0.00349	0.00428	0.00538	0.00683	0.00848	0.0104	0.0129
in n-propanol	0.0025	0.00308	0.0038	0.00475	0.00592	0.0073	0.00897	0.0111	0.0135
in toluene	0.0259	0.0304	0.0374	0.0458	0.0557	0.067	0.0813	0.0982	0.119
